Literature values as cited in patent publication US20230398127A1, “USE OF COMBINED ORAL CONTRACEPTIVES CONTAINING NOMEGESTROL ACETATE AND ESTRADIOL” (THERAMEX HQ UK LIMITED, priority 2020, published 2023).

Molecular target: T1, progesterone receptor (Homo sapiens, UniProt P06401)
T1 sequence (P06401 1-933): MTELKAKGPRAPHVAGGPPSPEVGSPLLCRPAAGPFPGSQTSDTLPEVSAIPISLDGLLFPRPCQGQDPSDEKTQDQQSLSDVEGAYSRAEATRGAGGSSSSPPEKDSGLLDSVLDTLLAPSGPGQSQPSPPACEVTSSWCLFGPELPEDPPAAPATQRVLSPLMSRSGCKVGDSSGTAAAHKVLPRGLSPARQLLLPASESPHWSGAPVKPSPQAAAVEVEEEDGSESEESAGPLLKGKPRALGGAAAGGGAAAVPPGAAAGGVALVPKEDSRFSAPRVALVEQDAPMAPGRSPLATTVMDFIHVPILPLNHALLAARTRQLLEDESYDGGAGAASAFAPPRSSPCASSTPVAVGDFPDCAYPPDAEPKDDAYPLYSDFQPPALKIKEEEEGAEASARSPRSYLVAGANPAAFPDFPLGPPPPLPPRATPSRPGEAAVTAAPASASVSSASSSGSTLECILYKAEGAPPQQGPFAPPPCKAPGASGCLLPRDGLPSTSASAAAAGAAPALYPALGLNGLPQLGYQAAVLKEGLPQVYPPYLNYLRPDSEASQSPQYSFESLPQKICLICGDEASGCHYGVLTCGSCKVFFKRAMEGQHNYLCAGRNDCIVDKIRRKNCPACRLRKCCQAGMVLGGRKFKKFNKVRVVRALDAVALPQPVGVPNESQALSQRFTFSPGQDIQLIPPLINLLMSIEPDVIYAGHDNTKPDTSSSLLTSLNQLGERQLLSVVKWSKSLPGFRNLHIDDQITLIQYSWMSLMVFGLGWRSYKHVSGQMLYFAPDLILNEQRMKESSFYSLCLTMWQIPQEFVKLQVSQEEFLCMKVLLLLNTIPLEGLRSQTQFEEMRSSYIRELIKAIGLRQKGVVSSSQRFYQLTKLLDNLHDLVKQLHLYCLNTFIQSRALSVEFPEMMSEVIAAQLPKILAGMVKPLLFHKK

CC(=O)O[C@]1(C(C)=O)CC[C@H]2[C@@H]3C=C(C)C4=CC(=O)CC[C@@H]4[C@H]3CC[C@@]21C [nomegestrol acetate, 17α-acetoxy-6-methyl-19-norpregna-4,6-diene-3,20-dione]
Affinity for the progesterone receptor: strong
